Where a SMILES comes first, the peptide text is derived from it. Bridges are numbered along the chain shown (N, C = ends). The star is where a group is joined. Biotin = O=C1N[C@H]2[C@H](CS[C@H]2CCCCC(=O)*)N1
How the values were obtained:
[1] = Far-UV CD analysis at different temperatures; type: physicochemical; conditions: 0.2 mg/ml peptide
Method: Peptides were resuspended in Molecular Biology Grade water or 10 mM sodium phosphate, pH 7, at a concentration of 200 μM to 1.4 mM. Far-UV scans were measured on an Aviv Model 410 spectrometer measuring at 0.5 nm intervals with a 1 sec averaging time, between 190 and 260 nm using 0.2 mg/ml peptide and a 1 nm bandwidth. Three scans were taken in total at each temperature and the results averaged. The CD scans were plotted using Aviv model 4.10 software, and the data were converted to molar ellipticity (M^−1 cm^−1). […] This far-UV spectrum is characteristic of other small structurally characterised β-sheet structures (Koepf et al. 1999, Protein Science, 8, 841-853; see FIG. 15).

VEGFR2-Fc fusion = target: T1, VEGFR2-Fc fusion (Homo sapiens, UniProt P35968); test: Real time binding assay by biolayer interferometry (Octet Red), steady state analysis
T1 construct: His tag (only implied: capture on TALON beads, detection with penta His-HRP); purchased R&D Systems
T1 sequence (P35968 with tags, fused parts or gaps): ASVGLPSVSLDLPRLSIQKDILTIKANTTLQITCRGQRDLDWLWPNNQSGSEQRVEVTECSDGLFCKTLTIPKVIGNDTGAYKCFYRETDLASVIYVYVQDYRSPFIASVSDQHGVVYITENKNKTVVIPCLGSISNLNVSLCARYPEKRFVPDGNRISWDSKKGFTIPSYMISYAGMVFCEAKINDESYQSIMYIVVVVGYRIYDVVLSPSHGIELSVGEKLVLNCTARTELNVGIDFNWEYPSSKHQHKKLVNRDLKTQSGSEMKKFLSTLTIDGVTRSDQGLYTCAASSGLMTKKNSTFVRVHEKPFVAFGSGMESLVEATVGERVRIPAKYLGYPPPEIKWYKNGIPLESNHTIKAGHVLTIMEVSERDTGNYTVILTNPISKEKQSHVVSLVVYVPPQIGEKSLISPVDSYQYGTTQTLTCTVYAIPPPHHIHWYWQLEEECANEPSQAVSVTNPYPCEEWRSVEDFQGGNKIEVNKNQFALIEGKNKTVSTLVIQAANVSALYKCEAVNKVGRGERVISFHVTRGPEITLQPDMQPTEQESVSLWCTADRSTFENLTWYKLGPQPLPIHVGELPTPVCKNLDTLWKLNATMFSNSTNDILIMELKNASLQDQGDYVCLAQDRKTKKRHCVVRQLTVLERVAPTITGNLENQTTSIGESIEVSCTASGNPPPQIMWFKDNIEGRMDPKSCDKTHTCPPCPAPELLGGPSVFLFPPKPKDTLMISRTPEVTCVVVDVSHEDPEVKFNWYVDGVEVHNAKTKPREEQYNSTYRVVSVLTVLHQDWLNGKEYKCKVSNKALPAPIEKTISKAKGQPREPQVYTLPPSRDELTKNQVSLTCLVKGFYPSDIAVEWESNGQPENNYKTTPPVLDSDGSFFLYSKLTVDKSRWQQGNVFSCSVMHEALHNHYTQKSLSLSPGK
Method: Alternatively, real-time binding assays between a chemically synthesised WW domain and ligand may be performed using biolayer interferometry with an Octet Red system (Fortebio, Menlo Park, Calif.). Biotinylated WW domain is immobilised to streptavidin biosensors (Fortebio) at a concentration of 50 ng/μl in PBS. Association curves are then detected by incubating WW domain-coated sensors with different concentrations of ligand (e.g. 1 to 100 nM in PBS), and dissociations detected by incubating the sensors in PBS. The dissociation constant for WW domain binding can be determined by steady state analysis.
Real-time binding assays between the peptides and VEGFR2-Fc fusion were performed using biolayer interferometry with an Octet Red system (Fortebio, Menlo Park, Calif.). WW peptides were immobilised on streptavidin biosensors (Fortebio) at a concentration of 2 μg/ml in kinetic buffer. Association curves were then detected by incubating the immobilised peptide with streptavidin-HRP (1 to 100 nM in kinetic buffer), and dissociations were detected by incubating the sensors in kinetic buffer.

Plasma stability assay = type: in vitro ADME; conditions: mouse, 250 μM peptide, 37° C., HPLC area, one phase exponential decay
Method: Peptides were resuspended in Molecular Biology Grade water at a concentration of 3 mM. The WW-B1 peptide was added to 300 μl mouse plasma (Harlan) or PBS (control) to a final concentration of 250 μM (2 samples). The samples were incubated at 37° C. 40 μl aliquots were removed from sample A at 0, 12, 14, 16, 18, 20 and 22 hr and from sample B at 0, 2, 4, 6, 8 and 10 hr. To purify each aliquot, double the volume of 100% ethanol (80 μl) was added and incubated at −20° C. for a few hours or overnight. The samples were centrifuged and 80 μl supernatant recovered. 40 μl water with 0.1% TFA was added to each sample and 100 μl was injected onto a SunFire C18 HPLC column. Buffer A (0.1% TFA in Water) was run through the column followed by 10-50% Buffer B (0.1% TFA, 5% water in 95% acetonitrile) over 20 min. The fractions from the column were collected and analysed using an AXIMA mass spectrometer.

[2] = target: T2, binding of VEGFR2 to VEGF (Homo sapiens, UniProt P35968); test: Competition ELISA: binding of VEGFR2 to VEGF-A coated wells in presence of WW domain peptide
T2 construct: His tag (only implied by detection with penta His-HRP); purchased R&D Systems
T2 sequence (P35968 with tags, fused parts or gaps): as above
Method: A competition assay was carried out in which binding of VEGFR2 to VEGF-A (VEGF) was competed by the presence of varying amounts of the selected modified WW domain peptide.
50 ng human VEGF (R&D Systems, Abingdon, UK) 1 μg/ml in PBS was coated per well onto a Maxisorp plate at 37° C. for 140 minutes. The wells were then blocked with 100 μl PBS containing 2% BSA for 55 minutes at room temperature. 1.25 ng VEGFR2 was preincubated with WW-B1 fused to maltose binding protein (MBP) in 50 μl PBS for 45 minutes at room temperature. The activity of the WW-B1 peptide was tested at serial dilutions from 10 μM to 156.25 nM. 50 μl 4% BSA in PBS was added to the preincubated VEGFR2 with WW-B1-MBP and the whole mixture was then added to the VEGF coated ELISA plate and incubated at room temperature for 55 minutes. The plate was then washed with 3 washes in PBS-Tween and 2 washes in PBS. Next 50 μl/well penta His-HRP (QIAgen, diluted 1:500 in 2% BSA in PBS) was added and the mixture incubated at room temperature for 55 minutes, before washing as before. ELISA signals were detected using SureBlue TMB peroxidase substrate (Insight biotechnology, Middlesex, UK) at 450 nm.
As a control, the above process was repeated with wild-type Pin1 WW domain peptide replacing WW-B1. The results are illustrated in FIG. 6.

Row | Molecule | structure after heating to 95° C. and cooling to 25° C. [1] | CD peak at 227-231 nm at 95° C. (folding state) [1] | Kd (VEGFR2-Fc fusion; peptide on streptavidin biosensors, 2 μg/ml in kinetic buffer, steady state analysis (Example 4), read-out: dissociation constant / affinity for VEGFR2) [nM] | binding affinity to VEGFR2 compared with non-cyclised WW-B1 (VEGFR2-Fc fusion; tested as set out in Example 2) | half-life at 250 μM (Plasma stability assay) [h] | binding affinity for VEGFR2 (concluded from competition assay) ([2]; control replacing WW-B1) | effect on the binding of VEGFR2 to VEGF ([2]; control replacing WW-B1 in the competition ELISA)
1 | CC[C@H](C)[C@@H]1NC(=O)[C@H](CC(=O)O)NC(=O)[C@H](CC(N)=O)NC(=O)[C@H](C(C)C)NC(=O)[C@H](Cc2ccc(O)cc2)NC(=O)[C@H](CC(C)C)NC(=O)[C@H](C(C)C)NC(=O)[C@H](CCCNC(=N)N)NC(=O)CNC(=O)[C@@H]2CCCN2C(=O)[C@H](CO)NC(=O)[C@H](CO)NC(=O)[C@H](Cc2c[nH]c3ccccc23)NC(=O)[C@H](CCSC)NC(=O)[C@H](CCCCN)NC(=O)[C@H](Cc2ccc(O)cc2)NC(=O)[C@H](Cc2c[nH]c3ccccc23)NC(=O)CNC(=O)[C@@H]2CCCN2C(=O)[C@@H]2CCCN2C(=O)[C@H](CC(C)C)NC(=O)[C@@H](NC(=O)[C@H](CCC(=O)O)NC(=O)[C@H](CCC(=O)O)NC(=O)[C@H](CC(=O)O)NC(=O)CCCC[C@@H]2SC[C@@H]3NC(=O)N[C@@H]32)CCCCNC(=O)CC[C@@H](C(=O)NCC(N)=O)NC(=O)[C@@H]2CCCN2C(=O)[C@H](CCCNC(=N)N)NC(=O)[C@H](CCC(=O)O)NC(=O)[C@H](Cc2c[nH]c3ccccc23)NC(=O)[C@H](CCCNC(=N)N)NC(=O)[C@H](Cc2c[nH]cn2)NC(=O)[C@H](C)NC(=O)[C@H](Cc2c[nH]cn2)NC(=O)[C@H]([C@@H](C)O)NC1=O [cyclised WW-B1] (Biotin-DEEKLPPGWYKMWSSPGRVLYVNDITHAHRWERPEG-NH2; lactam 4-35) | able to reform its structure | unfolding | 31 | comparable activity |  |  | 
2 | CC[C@H](C)[C@H](NC(=O)[C@H](CC(=O)O)NC(=O)[C@H](CC(N)=O)NC(=O)[C@@H](NC(=O)[C@H](Cc1ccc(O)cc1)NC(=O)[C@H](CC(C)C)NC(=O)[C@@H](NC(=O)[C@H](CCCNC(=N)N)NC(=O)CNC(=O)[C@@H]1CCCN1C(=O)[C@H](CO)NC(=O)[C@H](CO)NC(=O)[C@H](Cc1c[nH]c2ccccc12)NC(=O)[C@H](CCSC)NC(=O)[C@H](CCCCN)NC(=O)[C@H](Cc1ccc(O)cc1)NC(=O)[C@H](Cc1c[nH]c2ccccc12)NC(=O)CNC(=O)[C@@H]1CCCN1C(=O)[C@@H]1CCCN1C(=O)[C@H](CC(C)C)NC(=O)[C@H](CCCCN)NC(=O)[C@H](CCC(=O)O)NC(=O)[C@H](CCC(=O)O)NC(=O)[C@H](CC(=O)O)NC(=O)[C@H](C)NC(=O)[C@H](CCSC)NC(=O)CCCC[C@@H]1SC[C@@H]2NC(=O)N[C@@H]21)C(C)C)C(C)C)C(=O)N[C@H](C(=O)N[C@@H](Cc1c[nH]cn1)C(=O)N[C@@H](C)C(=O)N[C@@H](Cc1c[nH]cn1)C(=O)N[C@@H](CCCNC(=N)N)C(=O)N[C@@H](Cc1c[nH]c2ccccc12)C(=O)N[C@@H](CCC(=O)O)C(=O)N[C@@H](CCCNC(=N)N)C(=O)N1CCC[C@H]1C(=O)N[C@@H](CO)C(=O)NCC(N)=O)[C@@H](C)O [WW-B1] (Biotin-MADEEKLPPGWYKMWSSPGRVLYVNDITHAHRWERPSG-NH2; N-terminus and C-terminus assumed) | able to reform its structure | unfolding |  |  | 6.2 |  | 
3 | MADEEKLPPGWEKRMSRSSGRVYYFNHITNASQWERPSG [wild-type Pin1 WW domain, peptide fragment of the human Pin1 protein, used as control] |  |  |  |  |  | negligible | essentially no effect
